Drawing on US8536193B2, “Inhibitors of AKT activity” (Merck Sharp & Dohme Corp., priority 2008, dated 2013), this text covers IC50 for 8 molecules.

One assay addresses Akt1 kinase (Homo sapiens (Human), UniProt P31749). As to the kind of experiment: Akt kinase assay (HTRF, GSK-derived biotinylated peptide substrate). The assay is classed as biochemical. As to the method:
(§1) Activated Akt isoforms and pleckstrin homology domain deletion constructs were assayed utilizing a GSK-derived biotinylated peptide substrate. The extent of peptide phosphorylation was determined by Homogeneous Time Resolved Fluorescence (HTRF) using a lanthanide chelate (Lance)-coupled monoclonal antibody specific for the phosphopeptide in combination with a streptavidin-linked allophycocyanin (SA-APC) fluorophore which will bind to the biotin moiety on the peptide. When the Lance and APC are in proximity (i.e. bound to the same phosphopeptide molecule), a non-radiative energy transfer takes place from the Lance to the APC, followed by emission of light from APC at 665 nm.
(§2) Materials Required for the Assay:
(§3) A. Activated Akt isozyme or pleckstrin homology domain deleted construct
(§4) B. Akt peptide substrate: GSK3α (S21) Peptide #3928 biotin-[…] (SEQ.ID.NO.:15), Macromolecular Resources.
(§5) C. Lance labeled anti-phospho GSK3α monoclonal antibody (Cell Signaling Technology, clone #27).
(§6) D. SA-APC (Prozyme catalog no. PJ25S lot #896067).
(§7) E. Microfluor®B U Bottom Microtiter Plates (Dynex Technologies, Catalog no. 7205).
(§8) F. Discovery® HTRF Microplate Analyzer, Packard Instrument Company.
(§9) G. 100× Protease Inhibitor Cocktail (PIC): 1 mg/mL benzamidine, 0.5 mg/mL pepstatin, 0.5 mg/mL leupeptin, 0.5 mg/mL aprotinin.
(§10) H. 10× Assay Buffer: 500 mM HEPES, pH 7.5, 1% PEG, […], 1 mM EGTA, 1% BSA, 20 mM θ-Glycerol phosphate.
(§11) I. Quench Buffer: 50 mM HEPES pH 7.3, 16.6 mM EDTA, 0.1% BSA, 0.1% Triton X-100, 0.17 nM Lance labeled monoclonal antibody clone #27, 0.0067 mg/mL SA-APC
(§12) J. ATP/MgCl2 working solution: 1× Assay buffer, 1 mM DTT, 1×PIC, 125 mM KCl, 5% Glycerol, 25 mM MgCl2, 375 μM ATP
(§13) K. Enzyme working solution: 1× Assay buffer, 1 mM DTT, 1× PIC, 5% Glycerol, active Akt. The final enzyme concentrations were selected so that the assay was in a linear response range.
(§14) L. Peptide working solution: 1× Assay buffer, 1 mM DTT, 1× PIC, 5% Glycerol, 2 μM GSK3 biotinylated peptide #3928
(§15) The reaction is assembled by adding 16 μl, of the ATP/MgCl2 working solution to the appropriate wells of a 96-well microtiter plate. Inhibitor or vehicle (1.0 μL) is added followed by 10 μL of peptide working solution. The reaction is started by adding 13 μL of the enzyme working solution and mixing. The reaction is allowed to proceed for 50 min and then stopped by the addition of 60 μl, HTRF quench buffer. The stopped reactions were incubated at room temperature for at least 30 min and then read on the Discovery instrument.

For the next assay, the target named is Akt2 kinase (Homo sapiens (Human), UniProt P31751). The description is as above. The assay is classed as biochemical. The protocol: as §1, §2, §3, §4, §5, §6, §7, §8, §9, §10, §11, §12, §13, §14, §15
Akt2 kinase, sequence (P31751 whole entry): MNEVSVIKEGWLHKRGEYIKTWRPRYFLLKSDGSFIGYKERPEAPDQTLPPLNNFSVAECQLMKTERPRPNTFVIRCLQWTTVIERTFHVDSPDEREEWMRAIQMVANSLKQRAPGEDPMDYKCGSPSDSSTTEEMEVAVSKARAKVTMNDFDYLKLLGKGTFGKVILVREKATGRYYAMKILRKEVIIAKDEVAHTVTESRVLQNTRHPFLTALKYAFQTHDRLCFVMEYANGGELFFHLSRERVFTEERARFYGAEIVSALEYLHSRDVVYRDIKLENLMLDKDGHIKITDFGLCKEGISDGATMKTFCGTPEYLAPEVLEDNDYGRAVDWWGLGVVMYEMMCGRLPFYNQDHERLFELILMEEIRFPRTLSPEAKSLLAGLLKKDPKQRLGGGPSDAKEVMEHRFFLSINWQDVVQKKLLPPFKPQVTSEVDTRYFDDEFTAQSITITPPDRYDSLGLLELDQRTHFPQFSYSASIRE

Akt1 kinase, sequence (P31749 whole entry, the tested form may be a part, canonical isoform): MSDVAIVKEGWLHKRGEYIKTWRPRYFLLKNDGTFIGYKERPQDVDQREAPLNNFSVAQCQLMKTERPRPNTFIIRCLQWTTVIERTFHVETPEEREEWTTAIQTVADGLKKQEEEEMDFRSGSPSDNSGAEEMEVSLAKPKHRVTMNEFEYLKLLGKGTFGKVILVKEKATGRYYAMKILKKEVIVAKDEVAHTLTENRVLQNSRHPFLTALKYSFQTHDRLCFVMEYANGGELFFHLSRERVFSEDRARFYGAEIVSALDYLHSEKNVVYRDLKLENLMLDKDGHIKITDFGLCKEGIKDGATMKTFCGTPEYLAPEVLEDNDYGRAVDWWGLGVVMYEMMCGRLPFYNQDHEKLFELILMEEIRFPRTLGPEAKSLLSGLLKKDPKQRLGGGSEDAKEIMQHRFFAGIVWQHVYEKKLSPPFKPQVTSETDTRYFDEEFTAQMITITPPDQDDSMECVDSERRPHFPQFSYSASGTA

For the molecule `O=C(Cc1cccnc1)NC1(c2ccc(-c3nc4ccc5nnc(O)n5c4cc3-c3ccccc3)cc2)CCC1` [EXAMPLE 1-9, N-{1-[4-(1-hydroxy-8-phenyl[1,2,4]triazolo[4,3-a]-1,5-naphthylidin-7-yl)phenyl]cyclobutyl}-2-(3-pyridinyl)acetamide], the concentration for half-maximal inhibition (IC50) was 39 nM at Akt1 kinase and 200 nM at Akt2 kinase.

Turning to `NC1(c2ccc(-c3nc4ccc5nnc(-c6ccccc6)n5c4cc3-c3ccccc3)cc2)CCC1` [EXAMPLE 2-1, 1-[4-(1,8-diphenyl[1,2,4]triazolo[4,3-a]-1,5-naphthylidin-7-yl)phenyl]cyclobutanamine], the half-inhibitory concentration (IC50) turned out to be 2.3 nM on Akt1 kinase and 32 nM at Akt2 kinase.

Take `Nc1nnc2ccc3nc(-c4ccc(C5(N)CCC5)cc4)c(-c4ccccc4)cc3n12` [EXAMPLE 3-1, 7-[4-(1-aminocyclobutyl)phenyl]-8-phenyl[1,2,4]triazolo[4,3-a]-1,5-naphthylidin-1-amine]: the figures for the IC50 on Akt1 kinase and on Akt2 kinase were 6.1 nM and 24 nM, respectively.

With `Cc1nnc2ccc3nc(-c4ccc(C5(N)CCC5)cc4)c(-c4ccccc4)cc3n12` [EXAMPLE 4-1, 1-[4-(1-methyl-8-phenyl[1,2,4]triazolo[4,3-a]-1,5-naphthylidin-7-yl)phenyl]cyclobutanamine], the IC50 at Akt1 kinase came out at 8.2 nM; on Akt2 kinase it was 50 nM.

`NC1(c2ccc(-c3nc4ccc5nnc(-c6ccccc6)n5c4cc3-c3ccccc3)cc2)CC(F)(F)C1` [EXAMPLE 5-12, 1-[4-(1,8-diphenyl[1,2,4]triazolo[4,3-a]-1,5-naphthyridin-7-yl)phenyl]-3,3-difluorocyclobutanamine]: the half-maximal inhibitory concentration (IC50) amounted to 10 nM on Akt1 kinase and 140 nM at Akt2 kinase.

`CC1(O)CC(N)(c2ccc(-c3nc4ccc5nnc(-c6nnc[nH]6)n5c4cc3-c3ccccc3)cc2)C1` (stereo not drawn) [EXAMPLE 7-26, cis-3-amino-1-methyl-3-{4-[8-phenyl-1-(4H-1,2,4-triazol-3-yl)[1,2,4]triazolo[4,3-a][1,5]naphthyridin-7-yl]phenyl}cyclobutanol]: the IC50 was determined as 0.7 nM on Akt1 kinase and 12.6 nM at Akt2 kinase.

Turning to `C[C@]1(O)C[C@@](N)(c2ccc(-c3nc4ccc5nnc(C(F)F)n5c4cc3-c3ccccc3)cc2)C1` [EXAMPLE 10-4, trans-3-amino-3-{4-[1-(difluoromethyl)-8-phenyl[1,2,4]triazolo[4,3-a]-1,5-naphthyridin-7-yl]phenyl}-1-methylcyclobutanol], the 50% inhibitory concentration (IC50) at Akt1 kinase stood at 0.38 nM; on Akt2 kinase, 1.7 nM.

Turning to `NC1(c2ccc(-c3nc4ccc5nnc(C(F)F)n5c4cc3-c3ccccc3)cc2)CC(O)(C2CC2)C1` (stereo not drawn) [EXAMPLE 10-5, trans-3-amino-1-cyclopropyl-3-{4-[1-(difluoromethyl)-8-phenyl-[1,2,4]triazolo[4,3-a]-1,5-naphthyridin-7-yl]phenyl}cyclobutanol], the half-inhibitory concentration (IC50) on Akt1 kinase came to 0.34 nM; on Akt2 kinase, 2.2 nM.

As usually defined, the IC50 is the point on the concentration scale where inhibition reaches its midpoint.
